ChEMBL document CHEMBL4052645, “Discovery of potent and efficacious pyrrolopyridazines as dual JAK1/3 inhibitors” (Bioorg Med Chem Lett, 2017)

How the values were obtained:
[1] = molecular target: BMP-2-inducible protein kinase (Homo sapiens) (UniProt Q9NSY1); assay: Inhibition of human BIKE (S34 to N329 residues) expressed in bacterial expression system assessed as residual activity at 50 nM by KINOMEscan assay relative to control
[2] = molecular target: Protein kinase C delta type (Homo sapiens) (UniProt Q05655); assay: Inhibition of human PKCD (Q328 to D676 residues) expressed in bacterial expression system assessed as residual activity at 50 nM by KINOMEscan assay relative to control
[3] = molecular target: Serine/threonine-protein kinase 26 (Homo sapiens) (UniProt Q9P289); assay: Inhibition of full lengthhuman MST4 (M1 to P416 residues) expressed in mammalian expression system assessed as residual activity at 50 nM by KINOMEscan assay relative to control
[4] = molecular target: Serine/threonine-protein kinase PknB (Mycobacterium tuberculosis) (UniProt P9WI81); assay: Inhibition of wild-type Mycobacterium tuberculosis partial length PKNB (M1 to G279 residues) expressed in mammalian expression system assessed as residual activity at 50 nM by Kinomescan method relative to control
[5] = molecular target: Muscle, skeletal receptor tyrosine-protein kinase (Homo sapiens) (UniProt O15146); assay: Inhibition of wild-type human partial length MUSK (M553 to V869 residues) expressed in bacterial expression system assessed as residual activity at 50 nM by Kinomescan method relative to control
[6] = molecular target: Serine/threonine-protein kinase 25 (Homo sapiens) (UniProt O00506); assay: Inhibition of wild-type human partial length YSK1 (V14 to H295 residues) expressed in bacterial expression system assessed as residual activity at 50 nM by Kinomescan method relative to control
[7] = molecular target: Serine/threonine-protein kinase MARK2 (Homo sapiens) (UniProt Q7KZI7); assay: Inhibition of wild-type human partial length MARK2 (M1 to R450 residues) expressed in bacterial expression system assessed as residual activity at 50 nM by Kinomescan method relative to control
[8] = molecular target: Interleukin-1 receptor-associated kinase 3 (Homo sapiens) (UniProt Q9Y616); assay: Inhibition of wild-type human partial length IRAK3 (V147 to E596 residues) expressed in bacterial expression system assessed as residual activity at 50 nM by Kinomescan method relative to control
[9] = molecular target: Wee1-like protein kinase 2 (Homo sapiens) (UniProt P0C1S8); assay: Inhibition of wild-type human partial length WEE1B (M204 to K492 residues) expressed in bacterial expression system assessed as residual activity at 50 nM by Kinomescan method relative to control
[10] = molecular target: Ephrin type-A receptor 2 (Homo sapiens) (UniProt P29317); assay: Inhibition of wild-type human partial length EPHA2 (T593 to V891 residues) expressed in bacterial expression system assessed as residual activity at 50 nM by Kinomescan method relative to control
[11] = molecular target: Activin receptor type-1B (Homo sapiens) (UniProt P36896); assay: Inhibition of wild-type human ALK4 (S187 to I505 residues) expressed in bacterial expression system assessed as residual activity at 50 nM by Kinomescan method relative to control
[12] = molecular target: Tyrosine-protein kinase Yes (Homo sapiens) (UniProt P07947); assay: Inhibition of wild-type human partial length YES (T257 to L543 residues) expressed in bacterial expression system assessed as residual activity at 50 nM by Kinomescan method relative to control
[13] = molecular target: Phosphatidylinositol 4-kinase beta (Homo sapiens) (UniProt Q9UBF8); assay: Inhibition of wild-type human full length PIK4CB (M1 to M828 residues) expressed in mammalian expression system assessed as residual activity at 50 nM by Kinomescan method relative to control
[14] = molecular target: Dual serine/threonine and tyrosine protein kinase (Homo sapiens) (UniProt Q6XUX3); assay: Inhibition of wild-type human full length RIPK5 (M1 to T929 residues) expressed in mammalian expression system assessed as residual activity at 50 nM by Kinomescan method relative to control
[15] = molecular target: Serine/threonine-protein kinase 32A (Homo sapiens) (UniProt Q8WU08); assay: Inhibition of wild-type human full length STK32A (M1 to L396 residues) expressed in mammalian expression system assessed as residual activity at 50 nM by Kinomescan method relative to control
[16] = molecular target: Serine/threonine-protein kinase mTOR (Homo sapiens) (UniProt P42345); assay: Inhibition of wild-type human partial length MTOR (L1382 to W2549 residues) expressed in mammalian expression system assessed as residual activity at 50 nM by Kinomescan method relative to control
[17] = molecular target: Tyrosine-protein kinase BTK (Homo sapiens) (UniProt Q06187); assay: Inhibition of wild-type human full length BTK (M1 to S659 residues) expressed in mammalian expression system assessed as residual activity at 50 nM by Kinomescan method relative to control
[18] = molecular target: Tyrosine-protein kinase Fer (Homo sapiens) (UniProt P16591); assay: Inhibition of wild-type human partial length FER (S542 to T822 residues) expressed in bacterial expression system assessed as residual activity at 50 nM by Kinomescan method relative to control
[19] = molecular target: Tyrosine-protein kinase Fes/Fps (Homo sapiens) (UniProt P07332); assay: Inhibition of wild-type human partial length FES (I527 to R822 residues) expressed in bacterial expression system assessed as residual activity at 50 nM by Kinomescan method relative to control
[20] = molecular target: Serine/threonine-protein kinase Nek9 (Homo sapiens) (UniProt Q8TD19); assay: Inhibition of wild-type human partial length NEK9 (P32 to R328 residues) expressed in bacterial expression system assessed as residual activity at 50 nM by Kinomescan method relative to control
[21] = molecular target: Cyclin-dependent kinase 16 (Homo sapiens) (UniProt Q00536); assay: Inhibition of wild-type human partial length PCTAIRE1 (G160 to A474 residues) expressed in mammalian expression system assessed as residual activity at 50 nM by Kinomescan method relative to control
[22] = molecular target: Cyclin-dependent kinase 15 (Homo sapiens) (UniProt Q96Q40); assay: Inhibition of wild-type human full length PFTAIRE2 (M1 to W384 residues) expressed in bacterial expression system assessed as residual activity at 50 nM by Kinomescan method relative to control
[23] = molecular target: Serine/threonine-protein kinase D2 (Homo sapiens) (UniProt Q9BZL6); assay: Inhibition of wild-type human partial length PKD2 (A519 to E838 residues) expressed in bacterial expression system assessed as residual activity at 50 nM by Kinomescan method relative to control
[24] = molecular target: Proto-oncogene tyrosine-protein kinase receptor Ret (Homo sapiens) (UniProt P07949); assay: Inhibition of wild-type human partial length RET (E713 to D1014 residues) expressed in bacterial expression system assessed as residual activity at 50 nM by Kinomescan method relative to control
[25] = molecular target: Rhodopsin kinase GRK1 (Homo sapiens) (UniProt Q15835); assay: Inhibition of wild-type human full length RHOK (M1 to S563 residues) expressed in mammalian expression system assessed as residual activity at 50 nM by Kinomescan method relative to control

BMP-2-inducible protein kinase (Homo sapiens), sequence (Q9NSY1 whole entry, looked up, the tested form may be a part): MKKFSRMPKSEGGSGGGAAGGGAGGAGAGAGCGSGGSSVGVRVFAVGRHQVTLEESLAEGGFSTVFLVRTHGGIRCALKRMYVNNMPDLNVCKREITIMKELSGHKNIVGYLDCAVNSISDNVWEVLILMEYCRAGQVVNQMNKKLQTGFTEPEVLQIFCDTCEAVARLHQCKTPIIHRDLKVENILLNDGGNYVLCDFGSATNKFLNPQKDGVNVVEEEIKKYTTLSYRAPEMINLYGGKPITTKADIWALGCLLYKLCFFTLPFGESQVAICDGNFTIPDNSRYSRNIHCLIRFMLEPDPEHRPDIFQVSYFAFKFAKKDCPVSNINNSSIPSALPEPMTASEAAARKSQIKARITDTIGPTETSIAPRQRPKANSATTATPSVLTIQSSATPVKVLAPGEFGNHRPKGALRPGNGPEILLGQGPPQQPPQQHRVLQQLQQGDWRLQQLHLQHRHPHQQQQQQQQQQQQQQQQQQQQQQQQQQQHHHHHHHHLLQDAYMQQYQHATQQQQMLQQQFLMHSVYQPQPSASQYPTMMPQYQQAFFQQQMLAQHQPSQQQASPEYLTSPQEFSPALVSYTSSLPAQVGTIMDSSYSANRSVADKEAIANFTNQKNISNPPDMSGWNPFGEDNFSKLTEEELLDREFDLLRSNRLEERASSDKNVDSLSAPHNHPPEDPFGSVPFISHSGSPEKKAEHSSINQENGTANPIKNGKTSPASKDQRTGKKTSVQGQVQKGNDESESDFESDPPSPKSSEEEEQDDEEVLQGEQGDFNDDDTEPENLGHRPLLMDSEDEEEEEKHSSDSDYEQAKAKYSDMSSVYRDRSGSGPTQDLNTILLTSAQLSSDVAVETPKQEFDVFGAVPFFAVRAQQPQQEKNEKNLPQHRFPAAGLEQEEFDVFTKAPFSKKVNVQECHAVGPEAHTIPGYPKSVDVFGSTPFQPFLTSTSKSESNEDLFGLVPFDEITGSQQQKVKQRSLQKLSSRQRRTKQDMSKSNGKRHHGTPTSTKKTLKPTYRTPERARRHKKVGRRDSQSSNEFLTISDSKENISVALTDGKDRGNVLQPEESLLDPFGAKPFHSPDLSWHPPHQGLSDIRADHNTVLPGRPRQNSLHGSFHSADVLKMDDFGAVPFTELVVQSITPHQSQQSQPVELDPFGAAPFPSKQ
Dual serine/threonine and tyrosine protein kinase (Homo sapiens), sequence (Q6XUX3 whole entry, the tested form may be a part): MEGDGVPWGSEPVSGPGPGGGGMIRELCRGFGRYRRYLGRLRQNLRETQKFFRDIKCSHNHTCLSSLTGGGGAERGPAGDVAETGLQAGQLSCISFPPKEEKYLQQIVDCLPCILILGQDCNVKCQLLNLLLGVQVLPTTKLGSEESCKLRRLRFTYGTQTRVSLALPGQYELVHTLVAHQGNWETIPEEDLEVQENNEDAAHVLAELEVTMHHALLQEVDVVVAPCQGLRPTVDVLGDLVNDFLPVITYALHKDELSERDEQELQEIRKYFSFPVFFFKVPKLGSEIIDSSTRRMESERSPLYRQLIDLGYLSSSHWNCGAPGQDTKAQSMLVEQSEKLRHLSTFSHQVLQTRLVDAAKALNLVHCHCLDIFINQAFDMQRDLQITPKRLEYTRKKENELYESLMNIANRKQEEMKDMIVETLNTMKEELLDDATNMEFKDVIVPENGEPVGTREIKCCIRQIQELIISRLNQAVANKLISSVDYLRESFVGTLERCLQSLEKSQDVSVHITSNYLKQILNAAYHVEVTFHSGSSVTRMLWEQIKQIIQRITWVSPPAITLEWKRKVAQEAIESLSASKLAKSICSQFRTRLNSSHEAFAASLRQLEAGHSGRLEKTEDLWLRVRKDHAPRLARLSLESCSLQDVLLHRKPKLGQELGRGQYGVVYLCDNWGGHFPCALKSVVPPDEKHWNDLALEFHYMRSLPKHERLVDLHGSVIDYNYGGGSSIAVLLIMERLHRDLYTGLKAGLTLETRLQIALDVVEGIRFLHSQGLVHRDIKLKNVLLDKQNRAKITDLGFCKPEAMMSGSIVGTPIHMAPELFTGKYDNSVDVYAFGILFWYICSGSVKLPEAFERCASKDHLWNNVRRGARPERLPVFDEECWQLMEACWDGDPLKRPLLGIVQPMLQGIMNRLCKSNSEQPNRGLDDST
Wee1-like protein kinase 2 (Homo sapiens), sequence (P0C1S8 whole entry, looked up, the tested form may be a part): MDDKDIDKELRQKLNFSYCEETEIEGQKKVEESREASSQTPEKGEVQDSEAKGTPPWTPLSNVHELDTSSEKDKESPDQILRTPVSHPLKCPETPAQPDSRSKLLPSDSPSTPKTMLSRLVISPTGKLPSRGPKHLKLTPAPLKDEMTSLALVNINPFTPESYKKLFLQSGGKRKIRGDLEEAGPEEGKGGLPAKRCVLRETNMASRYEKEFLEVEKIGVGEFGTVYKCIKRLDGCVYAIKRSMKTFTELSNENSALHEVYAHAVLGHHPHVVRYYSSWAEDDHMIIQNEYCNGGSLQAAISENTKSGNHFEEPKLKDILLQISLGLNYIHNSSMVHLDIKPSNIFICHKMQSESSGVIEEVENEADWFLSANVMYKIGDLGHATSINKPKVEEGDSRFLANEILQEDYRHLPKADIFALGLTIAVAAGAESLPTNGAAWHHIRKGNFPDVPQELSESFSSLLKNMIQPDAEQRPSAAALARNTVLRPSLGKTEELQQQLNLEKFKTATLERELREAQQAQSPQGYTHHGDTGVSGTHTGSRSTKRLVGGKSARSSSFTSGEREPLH
Proto-oncogene tyrosine-protein kinase receptor Ret (Homo sapiens), sequence (P07949 whole entry, the tested form may be a part): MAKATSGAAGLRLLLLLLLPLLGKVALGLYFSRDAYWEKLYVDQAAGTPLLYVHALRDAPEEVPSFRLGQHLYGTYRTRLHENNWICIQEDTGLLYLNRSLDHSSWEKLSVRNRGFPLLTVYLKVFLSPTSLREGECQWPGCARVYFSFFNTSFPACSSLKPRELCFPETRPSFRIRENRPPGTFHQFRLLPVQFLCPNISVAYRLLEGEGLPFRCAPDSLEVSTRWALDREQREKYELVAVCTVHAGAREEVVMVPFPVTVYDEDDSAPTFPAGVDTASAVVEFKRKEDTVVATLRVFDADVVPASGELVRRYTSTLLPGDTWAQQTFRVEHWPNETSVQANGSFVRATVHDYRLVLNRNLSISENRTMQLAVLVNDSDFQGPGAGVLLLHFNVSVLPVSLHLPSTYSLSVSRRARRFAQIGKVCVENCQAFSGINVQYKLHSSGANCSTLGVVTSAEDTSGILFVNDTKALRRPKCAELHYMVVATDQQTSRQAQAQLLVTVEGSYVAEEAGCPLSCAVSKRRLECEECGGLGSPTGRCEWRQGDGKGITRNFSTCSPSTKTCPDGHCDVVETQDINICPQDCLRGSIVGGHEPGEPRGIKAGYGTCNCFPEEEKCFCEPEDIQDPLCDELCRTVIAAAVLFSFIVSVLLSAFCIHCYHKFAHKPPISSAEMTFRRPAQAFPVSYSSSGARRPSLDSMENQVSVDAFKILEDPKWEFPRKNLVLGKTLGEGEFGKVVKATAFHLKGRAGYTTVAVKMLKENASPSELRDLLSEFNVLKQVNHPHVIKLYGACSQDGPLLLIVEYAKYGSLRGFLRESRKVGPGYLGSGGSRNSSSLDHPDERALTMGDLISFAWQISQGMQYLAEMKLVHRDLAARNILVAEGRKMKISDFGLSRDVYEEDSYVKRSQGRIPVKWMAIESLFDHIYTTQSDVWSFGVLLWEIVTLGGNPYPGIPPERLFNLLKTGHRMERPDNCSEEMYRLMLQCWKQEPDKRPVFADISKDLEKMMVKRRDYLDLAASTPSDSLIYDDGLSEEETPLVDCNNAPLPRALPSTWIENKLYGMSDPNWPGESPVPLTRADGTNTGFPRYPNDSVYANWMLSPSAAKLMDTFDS
Serine/threonine-protein kinase Nek9 (Homo sapiens), sequence (Q8TD19 whole entry, the tested form may be a part): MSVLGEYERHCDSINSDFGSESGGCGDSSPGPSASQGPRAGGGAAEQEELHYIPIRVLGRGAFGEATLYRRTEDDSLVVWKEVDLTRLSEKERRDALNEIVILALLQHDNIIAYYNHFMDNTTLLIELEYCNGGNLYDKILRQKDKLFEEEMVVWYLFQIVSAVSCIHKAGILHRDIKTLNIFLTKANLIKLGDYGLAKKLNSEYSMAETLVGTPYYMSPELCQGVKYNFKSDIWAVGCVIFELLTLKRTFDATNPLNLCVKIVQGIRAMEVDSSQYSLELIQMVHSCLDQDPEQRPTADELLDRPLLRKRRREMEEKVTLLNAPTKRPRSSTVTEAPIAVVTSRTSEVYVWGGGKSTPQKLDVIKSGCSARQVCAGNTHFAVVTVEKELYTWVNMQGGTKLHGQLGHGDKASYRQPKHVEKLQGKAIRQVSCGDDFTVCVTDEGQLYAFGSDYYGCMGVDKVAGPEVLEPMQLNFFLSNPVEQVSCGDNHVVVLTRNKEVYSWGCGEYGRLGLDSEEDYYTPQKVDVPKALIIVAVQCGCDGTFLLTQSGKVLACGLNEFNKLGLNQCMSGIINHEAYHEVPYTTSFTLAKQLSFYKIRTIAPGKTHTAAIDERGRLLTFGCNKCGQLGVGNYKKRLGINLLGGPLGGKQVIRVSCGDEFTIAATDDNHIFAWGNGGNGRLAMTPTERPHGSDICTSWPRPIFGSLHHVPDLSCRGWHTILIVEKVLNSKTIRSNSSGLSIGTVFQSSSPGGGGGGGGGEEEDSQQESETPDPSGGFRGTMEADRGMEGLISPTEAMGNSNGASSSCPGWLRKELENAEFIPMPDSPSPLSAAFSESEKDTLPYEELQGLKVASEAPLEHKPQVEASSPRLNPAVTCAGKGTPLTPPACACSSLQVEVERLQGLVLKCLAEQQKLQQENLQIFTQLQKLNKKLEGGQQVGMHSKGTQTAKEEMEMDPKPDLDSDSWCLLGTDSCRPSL

Compound	Activity [1] [%]	Activity [2] [%]	Activity [3] [%]	Activity [4] [%]	Activity [5] [%]	Activity [6] [%]	Activity [7] [%]	Activity [8] [%]	Activity [9] [%]	Activity [10] [%]	Activity [11] [%]	Activity [12] [%]	Activity [13] [%]	Activity [14] [%]	Activity [15] [%]	Activity [16] [%]	Activity [17] [%]	Activity [18] [%]	Activity [19] [%]	Activity [20] [%]	also measured
CC1(C)[C@H](Nc2c(C(N)=O)cnn3cc(-c4ccccc4)cc23)CC[C@]1(C)N	7.5	9.5	12	17	43	58	64	66	73	81	82	89	90	92	92	95	99	100	100	100	Activity [21]: 100%; Activity [22]: 100%; Activity [23]: 100%; Activity [24]: 100%; Activity [25]: 100%
COc1ccc(-c2cc3c(N[C@@H]4CC[C@](C)(N)C4(C)C)c(C(N)=O)cnn3c2)cn1	42	30	23	24	90	74	98	100	98	100	66	94	100	74	100	97	100	100	98	100	Activity [21]: 89%; Activity [22]: 90%; Activity [23]: 100%; Activity [24]: 92%; Activity [25]: 100%
